Data taken from PubChem BioAssay AID1963874 (Molecular Pharmacology Branch, DTP, NCI, 2024).

System: 253994-281-T-J1-PDC KRAS-mutant spheroids with HUVEC/MSC, viability
Assay: Anticancer human tumor 253994-281-T-J1-PDC patient-derived colorectal carcinoma cell line growth inhibition [KRAS2]
Details: for viability, T/C: stronger effect = lower value; active = viability on the fitted dose curve at most 10% of control; inactive = the rest
In short: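 KRAS-mutant tumor cells were grown as spheroids with HUVEC endothelial cells and human MSCs as stroma. Targeted agents were tested alone and with KRAS pathway inhibitors. Doses started at or near clinical Cmax, or 10 microM, descending half-log.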

[1] = curve of first compound, second compound 0.1 µM
[2] = curve of first compound, second compound 0.316 µM
[3] = curve of first compound, second compound 1 µM
[4] = curve of first compound, second compound 3.16 µM
[5] = curve of first compound, second compound 10 µM
[6] = second compound 0.1 µM, first compound 0.01 µM
[7] = second compound 0.1 µM, first compound 0.0316 µM
[8] = second compound 0.1 µM, first compound 0.1 µM
[9] = second compound 0.1 µM, first compound 0.316 µM
[10] = second compound 0.1 µM, first compound 1 µM
[11] = second compound 0.1 µM, first compound 3.16 µM
[12] = second compound 0.316 µM, first compound 0.01 µM
[13] = second compound 0.316 µM, first compound 0.0316 µM
[14] = second compound 0.316 µM, first compound 0.1 µM
[15] = second compound 0.316 µM, first compound 0.316 µM
[16] = second compound 0.316 µM, first compound 1 µM
[17] = second compound 0.316 µM, first compound 3.16 µM
[18] = second compound 1 µM, first compound 0.01 µM
[19] = second compound 1 µM, first compound 0.0316 µM
[20] = second compound 1 µM, first compound 0.1 µM
[21] = second compound 1 µM, first compound 0.316 µM
[22] = second compound 1 µM, first compound 1 µM
[23] = second compound 1 µM, first compound 3.16 µM
[24] = second compound 3.16 µM, first compound 0.01 µM
[25] = second compound 3.16 µM, first compound 0.0316 µM
[26] = second compound 3.16 µM, first compound 0.1 µM
[27] = second compound 3.16 µM, first compound 0.316 µM
[28] = second compound 3.16 µM, first compound 1 µM
[29] = second compound 3.16 µM, first compound 3.16 µM
[30] = second compound 10 µM, first compound 0.01 µM
[31] = second compound 10 µM, first compound 0.0316 µM
[32] = second compound 10 µM, first compound 0.1 µM
[33] = second compound 10 µM, first compound 0.316 µM
[34] = second compound 10 µM, first compound 1 µM
[35] = second compound 10 µM, first compound 3.16 µM
[36] = second compound 0.1 µM, first compound 0.000316 µM
[37] = second compound 0.1 µM, first compound 0.001 µM
[38] = second compound 0.1 µM, first compound 0.00316 µM
[39] = second compound 0.316 µM, first compound 0.000316 µM
[40] = second compound 0.316 µM, first compound 0.001 µM
[41] = second compound 0.316 µM, first compound 0.00316 µM
[42] = second compound 1 µM, first compound 0.000316 µM
[43] = second compound 1 µM, first compound 0.001 µM
[44] = second compound 1 µM, first compound 0.00316 µM
[45] = second compound 3.16 µM, first compound 0.000316 µM
[46] = second compound 3.16 µM, first compound 0.001 µM
[47] = second compound 3.16 µM, first compound 0.00316 µM
[48] = second compound 10 µM, first compound 0.000316 µM
[49] = second compound 10 µM, first compound 0.001 µM
[50] = second compound 10 µM, first compound 0.00316 µM
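Also: spheroids exposed to agents for seven days before readout.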
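For viability, T/C in this document: percent of DMSO vehicle control viability.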

CC(C)n1nc(-c2ccc3oc(N)nc3c2)c2c(N)ncnc21
inactive: viability, T/C (compound 0.000316 µM) 94.6% [middle of 5 runs] | viability, T/C (compound 0.001 µM) 91.2% [middle of 5 runs] | viability, T/C (compound 0.00316 µM) 88.7% [middle of 5 runs] | viability, T/C (compound 0.01 µM) 83% [middle of 5 runs] | viability, T/C (compound 0.0316 µM) 80.2% [middle of 5 runs] | viability, T/C (compound 0.1 µM) 58.8% [middle of 5 runs]
> 100 nM: IC50 (curve of compound)

CC(=O)OC12COC1CC(O)C1(C)C(=O)C(O)C3=C(C)C(OC(=O)C(O)C(NC(=O)OC(C)(C)C)c4ccccc4)CC(O)(C(OC(=O)c4ccccc4)C21)C3(C)C (configuration not stated) + CC1OCC2(CCN(c3cnc(Sc4ccnc(N)c4Cl)c(N)n3)CC2)C1N
27.1 nM: IC50 [3]
< 10 nM: IC50 [2] | IC50 [4] | IC50 [5]
20.4 nM: IC50 [1]
inactive: viability, T/C [6] 68.7% | viability, T/C [7] 39.5% | viability, T/C [8] 26.3% | viability, T/C [9] 23.2% | viability, T/C [10] 27.5% | viability, T/C [11] 21.8% | viability, T/C [12] 48.8% | viability, T/C [13] 29.2% | viability, T/C [14] 18.4% | viability, T/C [15] 19.2% | viability, T/C [16] 20.3% | viability, T/C [17] 18.1% | viability, T/C [18] 92% | viability, T/C [19] 42% | viability, T/C [20] 31.2% | viability, T/C [21] 24% | viability, T/C [22] 21% | viability, T/C [23] 21.7% | viability, T/C [24] 19.8% | viability, T/C [25] 18% | viability, T/C [26] 11.9% | viability, T/C [27] 11.7% | viability, T/C [28] 14.8% | viability, T/C [29] 12.5% | viability, T/C [30] 20% | viability, T/C [31] 14.4% | viability, T/C [32] 13.3% | viability, T/C [33] 12.8% | viability, T/C [34] 10.5% | viability, T/C [35] 11.8%

COc1cc(OC)cc(N(CCNC(C)C)c2ccc3ncc(-c4cnn(C)c4)nc3c2)c1
inactive: viability, T/C (compound 0.0316 µM) 98.1% [middle of 5 runs] | viability, T/C (compound 0.1 µM) 92% [middle of 5 runs] | viability, T/C (compound 0.316 µM) 92.8% [middle of 5 runs] | viability, T/C (compound 1 µM) 88.1% [middle of 5 runs] | viability, T/C (compound 3.16 µM) 89.4% [middle of 5 runs]

CC(=O)Nc1cccc(-n2c(=O)n(C3CC3)c(=O)c3c(Nc4ccc(I)cc4F)n(C)c(=O)c(C)c32)c1 + CC1OCC2(CCN(c3cnc(Sc4ccnc(N)c4Cl)c(N)n3)CC2)C1N
active: viability, T/C [12] 8.18% | viability, T/C [13] 4.42% | viability, T/C [44] 9.38% | viability, T/C [18] 7.13% | viability, T/C [19] 4.04% | viability, T/C [47] 5.83% | viability, T/C [24] 6.59% | viability, T/C [25] 3.09% | viability, T/C [48] 7.93% | viability, T/C [49] 5.92% | viability, T/C [50] 4.52% | viability, T/C [30] 3.06% | viability, T/C [31] 2.51%
0.565 nM: IC50 [1]
< 0.1 nM: IC50 [3] | IC50 [4] | IC50 [5]
inactive: viability, T/C (second compound 0.1 µM, first compound 0.0001 µM) 64.3% | viability, T/C [36] 68.6% | viability, T/C [37] 34.1% | viability, T/C [38] 17.9% | viability, T/C [6] 10.1% | viability, T/C [7] 5.82% | viability, T/C (second compound 0.316 µM, first compound 0.0001 µM) 63.1% | viability, T/C [39] 42.8% | viability, T/C [40] 22.3% | viability, T/C [41] 14.1% | viability, T/C (second compound 1 µM, first compound 0.0001 µM) 40.5% | viability, T/C [42] 27.7% | viability, T/C [43] 14.1% | viability, T/C (second compound 3.16 µM, first compound 0.0001 µM) 29.3% | viability, T/C [45] 23.6% | viability, T/C [46] 10.8% | viability, T/C (second compound 10 µM, first compound 0.0001 µM) 16.5%
0.205 nM: IC50 [2]

CC(C)n1nc(-c2ccc3oc(N)nc3c2)c2c(N)ncnc21 + COc1cc2nc(C)nc(NC(C)c3cc(N)cc(C(F)(F)F)c3)c2cc1OC1CCOC1
inactive: viability, T/C [36] 82.7% | viability, T/C [37] 102% | viability, T/C [38] 74.1% | viability, T/C [6] 87% | viability, T/C [7] 82.7% | viability, T/C [8] 56.8% | viability, T/C [39] 86.4% | viability, T/C [40] 83.6% | viability, T/C [41] 88% | viability, T/C [12] 79.3% | viability, T/C [13] 74.4% | viability, T/C [14] 56.2% | viability, T/C [42] 90% | viability, T/C [43] 97.6% | viability, T/C [44] 82% | viability, T/C [18] 82.7% | viability, T/C [19] 76.5% | viability, T/C [20] 51% | viability, T/C [45] 81.9% | viability, T/C [46] 94.5% | viability, T/C [47] 85.5% | viability, T/C [24] 82% | viability, T/C [25] 72.8% | viability, T/C [26] 57.2% | viability, T/C [48] 78.5% | viability, T/C [49] 79.5% | viability, T/C [50] 77.2% | viability, T/C [30] 79.5% | viability, T/C [31] 64.1% | viability, T/C [32] 47.6%
> 100 nM: IC50 [1] | IC50 [2] | IC50 [3] | IC50 [4]
84.9 nM: IC50 [5]

CCN1CCN(Cc2ccc(Nc3ncc(F)c(-c4cc(F)c5nc(C)n(C(C)C)c5c4)n3)nc2)CC1 + C=CC(=O)N1CCN(c2nc(OCC3CCCN3C)nc3c2CCN(c2cccc4cccc(C)c24)C3)CC1CC#N
41.4 nM: IC50 [4]
inactive: viability, T/C (second compound 0.0316 µM, first compound 0.00316 µM) 91.2% | viability, T/C (second compound 0.0316 µM, first compound 0.01 µM) 105% | viability, T/C (second compound 0.0316 µM, first compound 0.0316 µM) 79.4% | viability, T/C (second compound 0.0316 µM, first compound 0.1 µM) 92.2% | viability, T/C (second compound 0.0316 µM, first compound 0.316 µM) 66.8% | viability, T/C (second compound 0.0316 µM, first compound 1 µM) 51.6% | viability, T/C [38] 88.7% | viability, T/C [6] 89.7% | viability, T/C [7] 79.3% | viability, T/C [8] 82.5% | viability, T/C [9] 73.4% | viability, T/C [10] 42.2% | viability, T/C [41] 90.5% | viability, T/C [12] 92.4% | viability, T/C [13] 85% | viability, T/C [14] 77.5% | viability, T/C [15] 68% | viability, T/C [16] 52.5% | viability, T/C [44] 81.4% | viability, T/C [18] 95.7% | viability, T/C [19] 82.7% | viability, T/C [20] 74.9% | viability, T/C [21] 64.9% | viability, T/C [22] 38% | viability, T/C [47] 61.5% | viability, T/C [24] 61.1% | viability, T/C [25] 57% | viability, T/C [26] 32.9% | viability, T/C [27] 15.3%
> 1000 nM: IC50 (curve of first compound, second compound 0.0316 µM) | IC50 [2]
586 nM: IC50 [3]
751 nM: IC50 [1]
active: viability, T/C [28] 1.78%

COC(=O)c1ccc2c(C(=Nc3ccc(N(C)C(=O)CN4CCN(C)CC4)cc3)c3ccccc3)c(O)[nH]c2c1 + COc1cc2nc(C)nc(NC(C)c3cc(N)cc(C(F)(F)F)c3)c2cc1OC1CCOC1
inactive: viability, T/C [7] 100% | viability, T/C [8] 103% | viability, T/C [9] 103% | viability, T/C [10] 85.1% | viability, T/C [11] 85.6% | viability, T/C (second compound 0.1 µM, first compound 10 µM) 9.83% | viability, T/C [13] 93.6% | viability, T/C [14] 75% | viability, T/C [15] 79.2% | viability, T/C [16] 91.6% | viability, T/C [17] 74.2% | viability, T/C (second compound 0.316 µM, first compound 10 µM) 22.8% | viability, T/C [19] 71.9% | viability, T/C [20] 71.6% | viability, T/C [21] 73.1% | viability, T/C [22] 85.1% | viability, T/C [23] 71.3% | viability, T/C [25] 73.4% | viability, T/C [26] 75.4% | viability, T/C [27] 84.4% | viability, T/C [28] 74.5% | viability, T/C [29] 40.2% | viability, T/C [31] 68.6% | viability, T/C [32] 79.1% | viability, T/C [33] 48.6% | viability, T/C [34] 54.4% | viability, T/C [35] 12.4%
active: viability, T/C (second compound 1 µM, first compound 10 µM) 7.12% | viability, T/C (second compound 3.16 µM, first compound 10 µM) 0.2% | viability, T/C (second compound 10 µM, first compound 10 µM) 0.21%
5430 nM: IC50 [2]
4650 nM: IC50 [3]
2290 nM: IC50 [4]
721 nM: IC50 [5]
5280 nM: IC50 [1]
